Laboratory results reported in patent US20120046329A1, “MODULATORS OF NOD1 AND NOD2 SIGNALING, METHODS OF IDENTIFYING MODULATORS OF NOD1 AND NOD2 SIGNALING, AND USES THEREOF” (Sanford-Burnham Medical Research Institute, priority 2010, published 2012).
Where two headings read alike, the source gives them in different places.

B1: SMAC protein: recombinant SMAC protein, dimeric, binds BIR2 and BIR3 domains of XIAP (protein, UniProt Q9NR28 22-239, looked up)
Diablo IAP-binding …: LCVPVVANFKKRCFSELIRPWHKTVTIGFGVTLCAVPIAQKSEPHSLSSEALMRRAVSLVTDSTSTFLSQTTYALIEAITEYTKAVYTLTSLYRQYTSLLGKMNSEEEDEVWQVIIGARAEMTSKHQEYLKLETTWMTAVGLSEMAAEAAYQTGADQASITARNHIQLVKLQVEEVHQLSRKAETKLAEAQIEELRQKTQEEGEERAESEQEAYLRED
modifications: His6 tag

Key:
[1] = tested on: TNF-α induced NF-κB; assay: TNF-α-induced NF-κB luciferase reporter counterscreen, HEK293T; assay type: cell-based, human; conditions: Homo sapiens, HEK-293T
[2] = target: NOD2 (Homo sapiens, UniProt Q9HC29); assay: NOD2 NF-κB luciferase reporter assay, HEK293T cells over-expressing NOD2; assay type: cell-based; parameters: expressed in transfected cells; host or cells: HEK293T NF-κB-luciferase cells, lentiviral transduction, sorted by EGFP
Sequence of NOD2 (Q9HC29 whole entry): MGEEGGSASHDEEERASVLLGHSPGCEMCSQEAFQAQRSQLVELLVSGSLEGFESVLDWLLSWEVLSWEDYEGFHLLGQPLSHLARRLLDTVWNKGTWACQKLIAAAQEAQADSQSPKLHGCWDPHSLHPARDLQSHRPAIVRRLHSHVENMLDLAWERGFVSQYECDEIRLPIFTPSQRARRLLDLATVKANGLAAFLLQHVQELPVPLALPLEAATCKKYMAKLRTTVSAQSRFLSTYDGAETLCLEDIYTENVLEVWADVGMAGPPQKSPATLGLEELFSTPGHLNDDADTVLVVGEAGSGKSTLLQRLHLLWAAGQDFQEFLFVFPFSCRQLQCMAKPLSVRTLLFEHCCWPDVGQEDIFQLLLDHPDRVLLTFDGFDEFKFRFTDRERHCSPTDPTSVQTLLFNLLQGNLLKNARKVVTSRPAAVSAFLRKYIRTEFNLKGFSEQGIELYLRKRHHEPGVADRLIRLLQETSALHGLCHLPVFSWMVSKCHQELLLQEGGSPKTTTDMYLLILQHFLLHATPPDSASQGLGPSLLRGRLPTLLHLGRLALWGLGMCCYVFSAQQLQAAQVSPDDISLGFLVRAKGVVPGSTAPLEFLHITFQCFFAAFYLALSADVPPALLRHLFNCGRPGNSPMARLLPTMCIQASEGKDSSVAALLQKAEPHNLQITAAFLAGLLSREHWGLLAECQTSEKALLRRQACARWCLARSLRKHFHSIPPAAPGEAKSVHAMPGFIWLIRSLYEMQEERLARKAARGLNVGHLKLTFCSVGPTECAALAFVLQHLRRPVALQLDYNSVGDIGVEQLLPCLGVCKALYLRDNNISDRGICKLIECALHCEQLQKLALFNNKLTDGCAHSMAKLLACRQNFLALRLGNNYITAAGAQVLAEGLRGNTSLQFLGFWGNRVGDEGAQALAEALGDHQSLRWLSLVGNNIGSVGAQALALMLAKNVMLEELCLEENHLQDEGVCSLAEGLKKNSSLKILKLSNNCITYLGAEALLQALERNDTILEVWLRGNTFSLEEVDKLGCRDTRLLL

[3] = target: T1, NOD1 (Homo sapiens, UniProt Q9Y239); assay: NOD1 NF-κB luciferase reporter assay, γ-tri-DAP-stimulated HEK293T cells; conditions: for Effect on NOD-driven NF-κB reporter gene activity: data not shown
T1 sequence (Q9Y239 1-953): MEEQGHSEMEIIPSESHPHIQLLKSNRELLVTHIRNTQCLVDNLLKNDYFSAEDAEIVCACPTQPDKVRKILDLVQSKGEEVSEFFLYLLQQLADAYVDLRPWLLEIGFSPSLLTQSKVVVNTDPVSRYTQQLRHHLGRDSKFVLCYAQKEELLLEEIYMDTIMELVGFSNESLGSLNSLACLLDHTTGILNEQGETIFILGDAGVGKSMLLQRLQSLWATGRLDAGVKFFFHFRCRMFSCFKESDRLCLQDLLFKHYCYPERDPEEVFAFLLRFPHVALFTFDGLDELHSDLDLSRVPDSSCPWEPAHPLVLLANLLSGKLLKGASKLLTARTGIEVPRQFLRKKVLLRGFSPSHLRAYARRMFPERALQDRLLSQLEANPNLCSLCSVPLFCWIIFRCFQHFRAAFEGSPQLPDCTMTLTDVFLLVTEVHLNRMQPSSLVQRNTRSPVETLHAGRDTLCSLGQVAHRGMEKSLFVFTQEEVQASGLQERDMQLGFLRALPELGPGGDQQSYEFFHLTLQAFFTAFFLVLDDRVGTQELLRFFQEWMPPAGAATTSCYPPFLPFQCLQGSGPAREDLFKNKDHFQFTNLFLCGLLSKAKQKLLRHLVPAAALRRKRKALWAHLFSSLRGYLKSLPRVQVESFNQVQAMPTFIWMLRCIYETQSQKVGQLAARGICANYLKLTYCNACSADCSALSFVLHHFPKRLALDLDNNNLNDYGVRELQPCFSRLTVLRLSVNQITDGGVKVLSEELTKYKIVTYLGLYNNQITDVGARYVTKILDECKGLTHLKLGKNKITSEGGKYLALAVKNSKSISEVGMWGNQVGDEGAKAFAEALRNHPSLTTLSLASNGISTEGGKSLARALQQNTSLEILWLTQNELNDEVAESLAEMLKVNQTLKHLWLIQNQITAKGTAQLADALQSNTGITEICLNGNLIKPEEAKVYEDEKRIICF

[4] = target: T2, XIAP/RIP2 interaction (Homo sapiens, UniProt P98170); assay: GST-XIAP pull-down of FLAG-RIP2 in vitro; assay type: binding
T2 construct: made in house; FLAG-RIP2: transfected HEK293T lysate
T2 sequence (P98170 whole entry): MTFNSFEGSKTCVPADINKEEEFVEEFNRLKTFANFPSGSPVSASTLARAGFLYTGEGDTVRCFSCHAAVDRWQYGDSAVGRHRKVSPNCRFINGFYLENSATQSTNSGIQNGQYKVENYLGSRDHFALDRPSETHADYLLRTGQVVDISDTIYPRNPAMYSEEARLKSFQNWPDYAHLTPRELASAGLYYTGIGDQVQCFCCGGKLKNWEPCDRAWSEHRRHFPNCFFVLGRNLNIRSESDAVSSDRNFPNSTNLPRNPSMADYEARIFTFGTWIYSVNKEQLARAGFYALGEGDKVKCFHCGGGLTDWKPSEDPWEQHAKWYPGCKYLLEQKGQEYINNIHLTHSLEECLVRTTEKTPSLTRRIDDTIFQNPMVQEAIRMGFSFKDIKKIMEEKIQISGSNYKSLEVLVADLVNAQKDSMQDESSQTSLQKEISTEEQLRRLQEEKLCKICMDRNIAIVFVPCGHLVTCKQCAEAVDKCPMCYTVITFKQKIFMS
Procedure: (A) Schematic representation of GFP-XIAP mutants. (B) Transfected HEK293T cells expressing FLAG-RIP2 together with GFP-XIAPWT, GFPXIAPE219R, GFP-XIAPH223V, GFP-XIAPE219R/H223V or GFP-control were lysed and subjected to immunoprecipitation using anti-FLAG antibody. Immunoprecipitates were analyzed by SDS/PAGE/immunoblotting using anti-FLAG and anti-GFP antibodies. Protein binding was quantified by densitometry analysis, measuring the integrated density value expressed as arbitrary units of the GFP-XIAP bands. Values are expressed as mean±SD of three independent experiments. […] Beads were analyzed by immunoblotting using anti-FLAG-HRP, anti-XIAP/anti-GST or anti-SMAC antibodies as indicated. An aliquot of lysates was also directly analyzed by immunoblotting (“input”).
In another set of experiments, for immunoprecipitation (IP), cells were lysed in IP buffer [20 mM iris pH 7.5, 135 mM NaCl, 1 mM EDTA or 1 mM EGTA (for binding assays involving NODS), 0.5% Nonidet P-40, 10% glycerol, 10 mM NaF, 1 mM DTT, 2 mM Na3VO4, 20 μM leupeptin, 1 mM PMSF, 20 mM N-ethylmaleimide, 0.5 μM iodoacetic acid, 1× protease inhibitor mix (Roche Applied Science)]. […] After incubation overnight bound immune complexes were washed four times in IP buffer, boiled in 2× Laemmli buffer and analyzed by SDS/PAGE and immunoblotted using various antibodies as specifically indicated. […]

[5] = TNF-α-stimulated NF-κB luciferase, HEK293T, read-out: TNF-α IC50

Molecule | IC50 [2] | IC50 [1, 5] | IC50 [3] | further results
Nc1nc2ccccc2n1S(=O)(=O)c1ccccc1 [Compound 4] |  |  |  | IC50 ([1]; read-out: TNF-α IC50(μM)): > 20 µM
Nc1nc2ccccc2n1S(=O)(=O)c1ccc([N+](=O)[O-])cc1 [Compound 5] |  |  |  | IC50 ([1]; read-out: TNF-α IC50(μM)): > 20 µM
Cc1ccc(S(=O)(=O)n2cnc3ccccc32)cc1 [Compound 6] |  |  |  | IC50 ([1]; read-out: TNF-α IC50(μM)): > 20 µM
Nc1nc2ccccc2n1S(=O)(=O)c1ccc(OC(F)(F)F)cc1 [Compound 11] | > 20 µM | > 20 µM |  | 
CC(C)c1ccc(S(=O)(=O)n2c(N)nc3ccccc32)cc1 [Compound 12] | > 20 µM | > 20 µM |  | 
Nc1nc2ccccc2n1S(=O)(=O)c1ccc(F)cc1 [Compound 13] | > 20 µM | > 20 µM |  | 
Nc1nc2ccccc2n1S(=O)(=O)c1ccc(Cl)c(Cl)c1 [Compound 14] | > 20 µM | > 20 µM |  | 
Nc1nc2ccccc2n1S(=O)(=O)c1cccs1 [Compound 16] | > 25 µM | 6.6 µM | 11 µM | 
C=CCNC1=C2C[C@@H](C)C[C@H](OC)[C@H](O)[C@@H](C)/C=C(\C)[C@H](OC(N)=O)[C@@H](OC)C=C/C=C(\C)C(=O)NC(=CC1=O)C2=O [Compound 17-AGG, reference compound] |  |  |  | Effect on NOD-driven NF-κB reporter gene activity [3]: suppress
Nc1nc2ccccc2n1S(=O)(=O)c1ccc2c(c1)CCC2 [Compound 17] | 0.6 µM | > 25 µM | 0.8 µM | 
Cc1ccc(S(=O)(=O)n2c(N)nc3cc(C)ccc32)cc1 [Compound 18] | 15 µM | > 25 µM | 9.3 µM | 
Cc1ccc(S(=O)(=O)n2c(N)nc3cc(C(F)(F)F)ccc32)cc1 [Compound 20] | 4.7 µM | 2.3 µM | 1.6 µM | 
Cc1ccc(S(=O)(=O)n2c(N)nc3ccc(C(F)(F)F)cc32)cc1 [Compound 21] | 10 µM | 12.3 µM | 3.9 µM | 
Cc1ccc(S(=O)(=O)n2c(N)nc3cc(F)ccc32)cc1 [Compound 22] | > 25 µM | > 25 µM | 1.8 µM | 
Cc1ccc(S(=O)(=O)n2c(N)nc3ccc(F)cc32)cc1 [Compound 23] | > 25 µM | > 25 µM | 6.2 µM | 
COc1ccc2c(c1)nc(N)n2S(=O)(=O)c1ccc(C)cc1 [Compound 24] | 3.1 µM | > 25 µM | 1.9 µM | 
CCOC(=O)c1ccc2nc(N)n(S(=O)(=O)c3ccc(C)cc3)c2c1 [Compound 25] | 7.6 µM | > 25 µM | 3 µM | 

Molecule | IC50 [2] | IC50 [1, 5] | IC50 [3] | further results
Cc1ccc(S(=O)(=O)n2c(N)nc3c(N)cccc32)cc1 [Compound 26] | 12.8 µM | > 25 µM | 17.5 µM | 
Cc1ccc(S(=O)(=O)n2c(CNC=O)nc3ccccc32)cc1 [Compound 27] | 15.6 µM | 8.4 µM | 10.9 µM | 
Cc1ccc(S(=O)(=O)n2c(NCCCO)nc3ccccc32)cc1 [Compound 28] | > 25 µM | > 25 µM | 12.1 µM | 
Cc1cccc(S(=O)(=O)n2c(N)nc3ccccc32)c1 [Compound 29] |  | > 100 µM | 3.8 µM | 
Nc1nc2ccccc2n1S(=O)(=O)c1cccc(Br)c1 [Compound 31] |  |  | 3.5 µM | IC50 ([1]; read-out: TNF-α IC50(μM)): > 100 µM
Nc1nc2ccccc2n1S(=O)(=O)c1cccc(C(F)(F)F)c1 [Compound 32] |  | > 100 µM | 12.4 µM | 
Nc1nc2ccccc2n1S(=O)(=O)c1cccc(OC(F)(F)F)c1 [Compound 33] |  | > 100 µM | > 25 µM | 
CCCc1cccc(S(=O)(=O)n2c(N)nc3ccccc32)c1 [Compound 34] |  | > 100 µM | 1.3 µM | 
CC(C)(C)c1cccc(S(=O)(=O)n2c(N)nc3ccccc32)c1 [Compound 35] |  | 15.6 µM | 3.3 µM | 
COc1cccc(S(=O)(=O)n2c(N)nc3ccccc32)c1 [Compound 36] |  | > 100 µM | 14.5 µM | 
Nc1nc2ccccc2n1S(=O)(=O)c1cc(Cl)c(Cl)s1 [Compound 37] |  | 18.4 µM | 2.2 µM | 
Nc1nc2ccccc2n1S(=O)(=O)c1ccc(-c2ccccc2)cc1 [Compound 39] |  |  | 1.5 µM | IC50 ([1]; read-out: TNF-α IC50(μM)): 4.2 µM
COc1ccc(-c2ccc(S(=O)(=O)n3c(N)nc4ccccc43)cc2)cc1 [Compound 40] |  | 5.2 µM |  | 
COC1=C2C[C@@H](C)C[C@H](OC)[C@H](O)[C@@H](C)/C=C(\C)[C@H](OC(N)=O)[C@@H](OC)/C=C\C=C(/C)C(=O)NC(=CC1=O)C2=O [geldanomycin, reference compound] |  |  |  | Effect on NOD-driven NF-κB reporter gene activity [3]: suppress
C[n+]1cc2c3c(ccc2c2ccc4cc5c(cc4c21)OCO5)OCO3 [sanguinarine, reference compound] |  |  |  | inhibition at 4 µM ([3]; HEK-293T, read-out: Luciferase inhibition, hit cut-off): ≥ 50%
B1 |  |  |  | Effect on XIAP/RIP2 interaction in vitro [4]: concentration-dependent inhibition
